Where “and” joins values, the source holds several entries; their conditions need not be identical. Equal entries are not always repeated.
Tests used:
Format in all cases: in vivo, NMRI mice
rotarod performance time = test: Rotarod test (motor performance and coordination); settings: doses up to 200 mg/kg i.p.; 16 rpm, up to 120 s
Procedure: (§1) Six-week old NMRI mice (30-32 g) were purchased from Janvier breeding (Le Genest-St Isle; France). Mice were housed ten per translucent polypropylene cage (internal dimensions; 37.5 cm×37.5 cm×[…], L×W×H) under standard laboratory conditions (22±2° C., 12-h light/dark cycle, lights on at 7:00 AM) with food (AO4, SAFE, France) and tap water available ad libitum. No less than one week of rest followed their arrival. All animal procedures were carried out in accordance with the European Community council directive of 24 of Nov. 1986 (86/609/EEC) for the care and use of laboratory animals and the French government guidelines (authorization C60-159-04—December, 2009).
Mice were habituated to the testing room at least 60 min before any behavioural evaluation. […]
The rotarod test was performed in accordance with the teachings of Kohara et al. (2005) J Pharmacol Exp Ther 2005; 315: 163-169. […] In the drug evaluation session, rotarod performance time was measured three times, up to 120 s, and the mean was adopted as the performance time for each animal. […]
(§2) All data are expressed as mean±SEM. The number of marble buried, locomotor activity and the time spent on the rot rod were analyzed by one-way analyse of variance (ANOVA) or the Kruskall Wallis procedure followed post-hoc by the Dunnett's test or Dunn's method respectively to locate the differences between the treated groups and the vehicle group. […]

[1] = test system: marble-burying behavior in mice; test: Marble-burying behavior in mice (model of obsessive-compulsive disorder); settings: for number of marbles buried (at least 2/3 buried, counted after 30 min): vs vehicle; for dose at which the decrease in number of marbles buried reached significance: p<0.05 vs vehicle
Description: Marble-burying behavior in the rodent is considered to be a model of obsessive-compulsive disorder (OCD) and is commonly used to assess the activity of candidate compounds in the prevention or treatment of OCD (Ishimaru et al. (1995) Jpn. J. Pharmacol. 68:65-70; Gaikwad & Parle (2010) Asian Journal of Pharmaceutical and Clinical Research 3:101-103; Prajapati et al. (2011) Pharmacognosy Res. 3:62-66). […] In addition, because the motor behavior can interfere with the burying behavior, the effects of stripentol in the rota rod test and spontaneous locomotion have been also evaluated.
as §1
Mice were habituated to the testing room at least 60 min before any behavioural evaluation. All tests took place between 9:00 AM and 3:00 PM unless otherwise stated. The behavioural tests were performed by different well-trained experimenters who were kept unaware of the treatment administered. All experiments were performed in a randomized manner.
The marble-burying behavior of mice was conducted according to the methodology of Njung'e and Handley (1991) Pharmacol Biochem Behav 1991; 38: 63-67. Briefly, each mouse was placed individually in a polycarbonate cage (Type S-River; 26.5×16×14 cm height) containing 20 clean glass marbles of diameter 1.5 cm evenly spaced on 5 cm deep sawdust. The cage-lid was a metal grid. No food or water was present. The marbles were cleaned with an alcohol solution (10%; v/v) between each animal. The number of marbles at least ⅔ buried was counted 30 min later.
These compounds were administered under a volume of 0.1 ml/10 g of body weight. Control animals received an equivalent volume of vehicle.
All data are expressed as mean±SEM. The number of marble buried, locomotor activity and the time spent on the rot rod were analyzed by one-way analyse of variance (ANOVA) or the Kruskall Wallis procedure followed post-hoc by the Dunnett's test or Dunn's method respectively to locate the differences between the treated groups and the vehicle group. Differences were considered statistically significant when p<0.05. Statistical tests were run using SigmaStat v3.5 (SPSS, inc, Chicago, Ill., USA).

spontaneous locomotion = test: Spontaneous locomotor activity (distance travelled, rearings); settings: up to 200 mg/kg i.p.; measured for 30 min
Procedure: as §1, with “2009). […]” for “2009).”
Testing occurred in a quiet room under a light level of approximately 400 lux. […] Locomotor activity and rearing were measured by vibrations analysis and the interruption of infra-red beams respectively (ActiV-Meter; Software BIO-ACTIV; Bioseb-Vitrolles-France). The distance travelled (in cm) and the number of rearings were measured for 30 min. […]
as §2

| Structure (SMILES) | time spent on the rota rod (rotarod performance time) | number of marbles buried (at least 2/3 buried, counted after 30 min) ([1]; stiripentol 100-200 mg/kg i.p. 60 min before testing, F(3.42)=5.425, p=0.003) | dose at which the decrease in number of marbles buried reached significance ([1]; stiripentol i.p. 60 min before testing) [mg/kg] | distance travelled (spontaneous locomotion) | number of rearings (spontaneous locomotion) | number of marbles buried (at least 2/3 buried, counted after 30 min) ([1]; clomipramine 5-20 mg/kg i.p. 30 min before testing, H(3)=20.412, p<0.001) | dose at which the decrease in number of marbles buried reached significance ([1]; clomipramine i.p. 30 min before testing) |
| --- | --- | --- | --- | --- | --- | --- | --- |
| CC(C)(C)C(O)/C=C/c1ccc2c(c1)OCO2 (racemic) [stiripentol] | without any significant effect | dose-dependently decreased the number of marbles buried | 200 | did not significantly modify the distance travelled | did not significantly impair the number of rearings |  |  |
| CN(C)CCCN1c2ccccc2CCc2ccc(Cl)cc21 [clomipramine] |  |  |  |  |  | significantly reduced the number of marbles buried | 10 mg/kg and 20 mg/kg |
